Laboratory results taken from the NIST ThermoML archive (doi:10.1016/j.jct.2017.11.002).
± gives the expanded uncertainty stated by the source.

Legend:
[1] = molar enthalpy of vaporization or sublimation; conditions: 298.15 K; Crystal; Static calorimetry
[2] = Crystal, Calculated from knudsen effusion weight loss

Structure (SMILES)	molar enthalpy [1]	vapor or sublimation pressure ([2]; 394.16 K)	vapor or sublimation pressure ([2]; 396.13 K)	vapor or sublimation pressure ([2]; 398.11 K)	vapor or sublimation pressure ([2]; 400.15 K)	vapor or sublimation pressure ([2]; 402.1 K)	vapor or sublimation pressure ([2]; 404.1 K)	vapor or sublimation pressure ([2]; 406.15 K)	vapor or sublimation pressure ([2]; 408.13 K)	vapor or sublimation pressure ([2]; 410.11 K)	vapor or sublimation pressure ([2]; 412.16 K)	vapor or sublimation pressure ([2]; 414.11 K)	vapor or sublimation pressure ([2]; 416.12 K)
Cn1c2ccccc2c(=O)c2ccccc21 [N-methylacridone]	29.6 ± 0.693 kcal/mol	0.0001465 ± 6e-05 kPa	0.0001788 ± 6e-05 kPa	0.0002123 ± 6.1e-05 kPa	0.0002508 ± 6.1e-05 kPa	0.0003035 ± 6.1e-05 kPa	0.0003591 ± 6.1e-05 kPa	0.0004322 ± 6.2e-05 kPa	0.000516 ± 6.3e-05 kPa	0.0005963 ± 6.4e-05 kPa	0.0007321 ± 6.5e-05 kPa	0.0008616 ± 6.7e-05 kPa	0.00101 ± 9.3e-05 kPa
O=c1c2ccccc2[nH]c2ccccc12 [9(10H)-acridinone]	31.9 ± 1 kcal/mol												
